Measurements published in patent publication US11530186B2, “Inhibitors for the β-catenin / T-cell factor protein-protein interaction” (H. LEE MOFFITT CANCER CENTER AND RESEARCH INSTITUTE, INC., priority 2018, dated 2022).

Legend:
Type in all cases: binding
β-catenin/Tcf4 = biological target: T1, β-catenin/Tcf4 (Homo sapiens, UniProt P35222); assay: FP selectivity assay, β-catenin/Tcf assay; settings: mean ± SD (n = 3)
T1 construct: Wild-type β-catenin (residues 138-781) were cloned into a pET-28b vector; 6×histidine (C); made in house; host or cells: E. coli BL21 DE3
T1 sequence (P35222 138-781): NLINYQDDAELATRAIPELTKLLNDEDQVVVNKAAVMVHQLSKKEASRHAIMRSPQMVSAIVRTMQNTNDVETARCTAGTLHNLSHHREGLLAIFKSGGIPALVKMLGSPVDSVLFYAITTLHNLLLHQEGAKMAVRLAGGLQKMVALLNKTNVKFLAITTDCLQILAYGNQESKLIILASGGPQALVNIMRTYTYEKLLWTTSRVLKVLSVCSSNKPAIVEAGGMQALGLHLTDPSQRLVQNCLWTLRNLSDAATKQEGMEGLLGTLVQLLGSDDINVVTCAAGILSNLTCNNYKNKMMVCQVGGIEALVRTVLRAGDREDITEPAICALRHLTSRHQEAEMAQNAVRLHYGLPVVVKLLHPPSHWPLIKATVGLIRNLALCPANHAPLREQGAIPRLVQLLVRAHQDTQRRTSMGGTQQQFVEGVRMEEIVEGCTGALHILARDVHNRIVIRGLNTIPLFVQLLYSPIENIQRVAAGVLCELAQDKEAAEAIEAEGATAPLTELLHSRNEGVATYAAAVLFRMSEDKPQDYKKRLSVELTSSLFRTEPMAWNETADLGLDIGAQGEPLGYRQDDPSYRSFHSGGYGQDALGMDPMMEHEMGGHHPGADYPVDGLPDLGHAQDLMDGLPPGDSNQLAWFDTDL
Description: FP Selectivity Assays. Experiments were performed in 96-well Microfluor 2 black plates on a Synergy 2 plate reader (Biotek). The polarization was measured at room temperature with an excitation wavelength at 485 nm and an emission wavelength at 535 nm. The FP experiments were performed in an assay buffer of 25 mM Hepes (pH 7.4), 100 mM NaCl, 0.01% Triton X-100, and 100 μg/ml γ-globulin. The final reaction volume was set to 100 μL. For the β-catenin/Tcf assay, 10 nM human β-catenin (residues 138-781) was incubated with 2.5 nM C-terminally fluorescein-labeled human Tcf4 (residues 7-51) for 30 min at 4° C., and then different concentrations of the compound in assay buffer were added. […] The negative control refers to 5 nM E-cadherin fluorescence tracer and 150 nM β-catenin in assay buffer with no inhibitor presenting. The positive control refers to 5 nM E-cadherin fluorescence tracer in assay buffer. […] The negative control refers to 5 nM APC-R3 fluorescence tracer and 2,000 nM β-catenin in assay buffer without the tested compound. The positive control refers to 5 nM APC-R3 fluorescence tracer in assay buffer. Each assay plate was covered black and gently mixed on an orbital shaker at 4° C. for 2.5 h to reach equilibrium before the polarization values were read. […] The IC50 values were determined by GraphPad Prism 5.0. […] The results were expressed as mean±standard deviation. […]

β-catenin/E-cadherin = biological target: T2, β-catenin/E-cadherin (Homo sapiens, UniProt P35222); assay: FP selectivity assay, β-catenin/cadherin assay
T2 construct: 150 nM human β-catenin (residues 138-781); 6×histidine (C); made in house; host or cells: E. coli BL21 DE3
T2 sequence (P35222 138-781): T1 sequence (P35222 138-781)
Description: (§1) FP Selectivity Assays. Experiments were performed in 96-well Microfluor 2 black plates on a Synergy 2 plate reader (Biotek). The polarization was measured at room temperature with an excitation wavelength at 485 nm and an emission wavelength at 535 nm. The FP experiments were performed in an assay buffer of 25 mM Hepes (pH 7.4), 100 mM NaCl, 0.01% Triton X-100, and 100 μg/ml γ-globulin. The final reaction volume was set to 100 μL. For the β-catenin/Tcf assay, 10 nM human β-catenin (residues 138-781) was incubated with 2.5 nM C-terminally fluorescein-labeled human Tcf4 (residues 7-51) for 30 min at 4° C., and then different concentrations of the compound in assay buffer were added. […] For the β-catenin/cadherin assay, 150 nM human β-catenin (residues 138-781) was incubated with 5 nM C-terminally fluorescent-labeled human E-cadherin (residues 819-873) in assay buffer for 30 min at 4° C. The negative control refers to 5 nM E-cadherin fluorescence tracer and 150 nM β-catenin in assay buffer with no inhibitor presenting. The positive control refers to 5 nM E-cadherin fluorescence tracer in assay buffer. […] The negative control refers to 5 nM APC-R3 fluorescence tracer and 2,000 nM β-catenin in assay buffer without the tested compound. The positive control refers to 5 nM APC-R3 fluorescence tracer in assay buffer. Each assay plate was covered black and gently mixed on an orbital shaker at 4° C. for 2.5 h to reach equilibrium before the polarization values were read. […] The IC50 values were determined by GraphPad Prism 5.0. […] The results were expressed as mean±standard deviation. The Tcf/cahderin selectivity ratio was calculated on the basis of the respective Ki value of the β-catenin/E-cadherin interaction over that of the β-catenin/Tcf4 interaction. The Tcf/APC selectivity ratio was calculated on the basis of the respective Ki value of the β-catenin/APC-R3 interaction over that of the β-catenin/Tcf4 interaction. […]

β-catenin/APC-R3 = biological target: T3, β-catenin/APC-R3 (Homo sapiens, UniProt P35222); assay: FP selectivity assay, β-catenin/APC-R3 assay
T3 construct: 2000 nM human β-catenin (residues 138-781); 6×histidine (C); made in house; host or cells: E. coli BL21 DE3
T3 sequence (P35222 138-781): T1 sequence (P35222 138-781)
Description: as §1

[1] = FP selectivity assay, mean ± SD (n = 3)

Ki (β-catenin/Tcf4): 0.93 ± 0.51 µM | Ki (β-catenin/E-cadherin; [1]): 26 ± 8 µM | selectivity for β-catenin/Tcf over β-catenin/cadherin PPI (β-catenin/E-cadherin; FP selectivity assays): 28 fold | Selectivity Tcf/E-cadherin (β-catenin/E-cadherin; ratio of Ki β-catenin/E-cadherin over Ki β-catenin/Tcf4): 28 | Ki (β-catenin/APC-R3; [1]): 74 ± 11 µM | selectivity for β-catenin/Tcf over β-catenin/APC PPI (β-catenin/APC-R3; FP selectivity assays): 80 fold | Selectivity Tcf/APC (β-catenin/APC-R3; ratio of Ki β-catenin/APC-R3 over Ki β-catenin/Tcf4): 80
SMILES: O=C(O)c1ccc2c(c1)c(CCc1ccc(Cl)cc1)c(CCc1nc3ccccc3s1)n2CCc1nn[nH]n1 [Compound 27, 1-(2-(2H-tetrazol-5-yl)ethyl)-2-(2-(benzo[d]thiazol-2-yl)ethyl)-3-(4-chlorophenethyl)-1H-indole-5-carboxylic acid]
